Read-outs that look alike come from different tables or passages of the source.
How the values were obtained:
[1] = Determination of the blood-to-plasma ratio (spiked whole blood and plasma, GC–MS of plasma); assay type: in vitro ADME; conditions: pooled human blood, haematocrit 41%, 1 h at 37 °C; for blood plasma ratio at 1 h, 5 µM: both sexes, pooled whole blood and plasma, read-out: Kb/p experimental (blood-to-plasma ratio); for Kb/p experimental (blood-to-plasma ratio): 5 µM
Description: Human blood (pooled, from three male donors and three female donors) was obtained from Seralab (West Sussex, UK). Blood was received chilled with sodium citrate as an anticoagulant and kept at 4 °C until use. The blood was used prior to its expiration date. Blood haematocrit was 41%, as provided by the supplier.
In this method, only analysis of the plasma is required. Briefly, the compound is spiked into equal volumes of whole blood and plasma. Following equilibration, the whole blood is centrifuged to extract the plasma. The extracted plasma and the original plasma are analysed to obtain compound concentrations. The blood-to-plasma ratio can then be calculated from Eq. 1 (shown below).
In this work, aliquots of whole blood (5 mL) were centrifuged at 2500 rpm for 20 min to provide plasma. This was performed on the day of the experiments. The plasma was removed and stored at 4 °C until use (typically within 2 h).
The compounds were dissolved in DMSO or acetonitrile to produce 5 mM stock solutions. Stock solutions were diluted with PBS (pH 7.4) to produce working solutions (50 µM) on the day of experimentation. Stock solutions were stored for no longer than 1 week. Appropriate volumes of working solutions were added to blood or plasma to yield a final compound concentration of 5 µM (final solvent concentrations were 0.1%). The treated blood or plasma samples were incubated for 1 h at 37 °C. Following incubation, the blood sample was removed and centrifuged at 2500 rpm for 20 min and the plasma was extracted. The 250 µL of extracted plasma (from spiked whole blood) and 250 µL of spiked plasma had ice-cold acetonitrile added to precipitate proteins (4:1 ratio of acetonitrile-to-plasma). Both plasma samples were then centrifuged at 10,000 rpm for 20 min. The supernatants were collected and evaporated under a stream of nitrogen using a Biotage Turbovap LV Evaporator. The evaporated samples were reconstituted in 150 µL acetonitrile and analysed using gas chromatography–mass spectrometry (GC–MS).
The […] was calculated using Eq. 11 Ke/p=1/H×CPRef/CP-1+1, where Ke/p is the red blood cell partition coefficient, H is the haematocrit, CPRef is the concentration (µM) in the reference plasma, and CP is the concentration (µM) in the plasma separated from the whole blood.
Ke/p describes the ratio of the concentration of drug in the red blood cells (not including plasma) to the concentration of drug in plasma. Ke/p can be converted to the blood-to-plasma ratio (Kb/p) with Eq. 22 Kb/p=(Ke/p×H)+1-H, where Kb/p is the blood-to-plasma ratio, Ke/p is the […], and H is the haematocrit. Kb/p therefore describes the ratio of the concentration of drug in whole blood (containing both red blood cells and plasma) to the concentration of the drug in plasma.

[2] = ref 13; cited from earlier work
[3] = cited from earlier work; for Kb/p literature (blood-to-plasma ratio): literature range
GABAA receptor = target: GABAA receptor; set-up: method as in PMID 29685303; conditions: QSAR, previous work; cited from earlier work
[4] = set-up: method as in PMID 31933443; conditions: user reports; cited from earlier work

Which results are given for O=C1CN=C(c2ccccc2Cl)c2cc(Br)ccc2N1 [Phenazepam, phenazepam]?
blood plasma ratio at 1 h, 5 µM [1]: 0.57 ± 0.13; plasma protein binding [2]: 98.3%

Which “Kb/p experimental (blood-to-plasma ratio)” value [1] does the source give for CN1C(=O)CN=C(c2ccccc2Cl)c2cc(Cl)ccc21 [Diclazepam, diclazepam] here?
The value was 0.82 ± 0.05.

And the plasma protein binding [2]?
The plasma protein binding was 93.8%.

Which results are given for CCc1cc2c(s1)-n1c(C)nnc1CN=C2c1ccccc1 [Deschloroetizolam, deschloroetizolam]?
Kb/p experimental (blood-to-plasma ratio) [1]: 0.68 ± 0.06; plasma protein binding [2]: 87.2%

For CN(C)CCCN1c2ccccc2Sc2ccc(Cl)cc21 [Chlorpromazine, chlorpromazine], which blood plasma ratio at 1 h, 5 µM [1] is on record?
Its blood plasma ratio at 1 h, 5 µM is 1.43 ± 0.32.

And the “Kb/p literature (blood-to-plasma ratio)” value [3]?
The value was 1.17–1.56.

Which blood plasma ratio at 1 h, 5 µM [1] does the source give for CCc1cc2c(s1)-n1c(C)nnc1CN=C2c1ccccc1Cl [Etizolam, etizolam] here?
The blood plasma ratio at 1 h, 5 µM was 0.7 ± 0.03.

What about the plasma protein binding [2] of the same molecule?
The plasma protein binding was 92.8%.

Which results are given for O=C1Nc2ccc(Cl)cc2C(c2ccccc2Cl)=NC1O (stereo not drawn) [lorazepam]?
blood-to-plasma ratio ([3]; ref 16): 0.60; blood-to-plasma ratio ([3]; ref 38): 1.14

Which blood plasma ratio at 1 h, 5 µM [1] does the source give for C=C[C@H]1C[N@@]2CC[C@H]1C[C@H]2[C@H](O)c1ccnc2ccc(OC)cc12 [Quinine, quinine] here?
Its blood plasma ratio at 1 h, 5 µM is 1.66 ± 0.52.

What about the “Kb/p literature (blood-to-plasma ratio)” value [3] of the same molecule?
The value was 1.46–2.00.

With Cc1nnc2n1-c1ccc([N+](=O)[O-])cc1C(c1ccccc1F)=NC2 [flunitrazolam] as the molecule, how does the “predicted log 1/c value” (GABAA receptor) read?
Its value is 8.88.

With Cc1nnc2n1-c1sc(Cl)cc1C(c1ccccc1F)=NC2 [Fluclotizolam] as the molecule, how does the “dose reported as having a 'heavy effect'” value [4] read?
Its value is “more than 0.75 mg”.

With O=C1CN=C(c2ccccc2Cl)c2cc([N+](=O)[O-])ccc2N1 [Clonazepam, clonazepam] as the molecule, how does the blood-to-plasma ratio ([3]; ref 37) read?
The blood-to-plasma ratio was 0.65.

Which blood plasma ratio at 1 h, 5 µM [1] does the source give for C[C@@H]1N=C(c2ccccc2Cl)c2cc([N+](=O)[O-])ccc2NC1=O [Meclonazepam, meclonazepam] here?
The blood plasma ratio at 1 h, 5 µM was 0.83 ± 0.08.

Which blood plasma ratio at 1 h, 5 µM [1] does the source give for O=C1CN=C(c2ccccc2)c2cc([N+](=O)[O-])ccc2N1 [Nitrazepam, nitrazepam] here?
Its blood plasma ratio at 1 h, 5 µM is 0.63 ± 0.02.

What about the blood-to-plasma ratio ([3]; calculated from literature whole blood and plasma concentrations (125-I radioimmunoassay)) of the same molecule?
The blood-to-plasma ratio was 0.57 ± 0.27.

And the blood-to-plasma ratio ([3]; commonly reported value, origin unclear)?
The blood-to-plasma ratio was 1.0.

And the “Kb/p literature (blood-to-plasma ratio)” value [3]?
Its value is 0.57–1.00.

With Cc1nnc2n1-c1ccc(Br)cc1C(c1ccccn1)=NC2 [Pyrazolam, pyrazolam] as the molecule, how does the “Kb/p experimental (blood-to-plasma ratio)” value [1] read?
Its value is 1.18 ± 0.03.

And the plasma protein binding [2]?
The plasma protein binding was 78.7%.

Source: publication PMC9715504, “The blood-to-plasma ratio and predicted GABAA-binding affinity of designer benzodiazepines” (Forensic Toxicology, 2022)
